Experimental data: patent US20030186967A1, “Acylresorcinol derivatives are selective vitronectin receptor inhibitors” (American Home Products Corporation, priority 1998, published 2003)
pIC50: −log10 of the molar value.

Biological target: T1, Vitronectin receptor αVβ3 (Homo sapiens, UniProt P05106+P06756)
T1 construct: expressed in transfected cells; host or cells: 512P5 cells (plasma membrane preparation)
Experiment: Vitronectin Receptor αVβ3 Binding Assay
Conditions: read-out: VnR (IC50μM)

T1 sequence (P06756 31-889 limits assumed): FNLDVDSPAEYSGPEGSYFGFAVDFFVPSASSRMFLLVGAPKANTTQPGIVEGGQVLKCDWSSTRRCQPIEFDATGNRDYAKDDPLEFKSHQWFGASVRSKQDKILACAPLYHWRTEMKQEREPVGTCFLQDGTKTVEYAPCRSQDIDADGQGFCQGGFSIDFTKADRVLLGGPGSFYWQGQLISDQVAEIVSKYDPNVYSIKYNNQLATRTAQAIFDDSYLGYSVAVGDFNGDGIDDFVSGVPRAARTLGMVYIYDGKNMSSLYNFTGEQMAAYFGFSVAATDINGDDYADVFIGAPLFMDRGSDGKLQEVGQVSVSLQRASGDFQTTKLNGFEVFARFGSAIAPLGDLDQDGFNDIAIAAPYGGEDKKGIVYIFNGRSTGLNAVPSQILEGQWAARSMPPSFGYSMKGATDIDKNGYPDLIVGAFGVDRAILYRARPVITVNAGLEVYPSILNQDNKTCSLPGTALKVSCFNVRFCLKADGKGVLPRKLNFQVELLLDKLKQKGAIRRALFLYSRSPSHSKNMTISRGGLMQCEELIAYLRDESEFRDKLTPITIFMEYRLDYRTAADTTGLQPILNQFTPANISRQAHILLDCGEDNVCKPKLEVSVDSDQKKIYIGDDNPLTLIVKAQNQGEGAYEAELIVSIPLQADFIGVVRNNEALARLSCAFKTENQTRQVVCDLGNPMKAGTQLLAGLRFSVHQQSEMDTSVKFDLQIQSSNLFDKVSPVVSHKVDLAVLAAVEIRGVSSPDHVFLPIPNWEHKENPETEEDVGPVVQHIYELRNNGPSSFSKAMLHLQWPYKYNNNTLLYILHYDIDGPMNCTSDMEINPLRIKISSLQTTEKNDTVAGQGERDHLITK
T1 sequence (P06756 891-1048 partner limits assumed): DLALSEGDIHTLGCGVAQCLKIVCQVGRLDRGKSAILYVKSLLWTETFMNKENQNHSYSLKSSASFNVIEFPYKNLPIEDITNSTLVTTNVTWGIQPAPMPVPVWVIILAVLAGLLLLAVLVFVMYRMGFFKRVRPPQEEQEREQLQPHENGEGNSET
T1 sequence (P05106 27-788): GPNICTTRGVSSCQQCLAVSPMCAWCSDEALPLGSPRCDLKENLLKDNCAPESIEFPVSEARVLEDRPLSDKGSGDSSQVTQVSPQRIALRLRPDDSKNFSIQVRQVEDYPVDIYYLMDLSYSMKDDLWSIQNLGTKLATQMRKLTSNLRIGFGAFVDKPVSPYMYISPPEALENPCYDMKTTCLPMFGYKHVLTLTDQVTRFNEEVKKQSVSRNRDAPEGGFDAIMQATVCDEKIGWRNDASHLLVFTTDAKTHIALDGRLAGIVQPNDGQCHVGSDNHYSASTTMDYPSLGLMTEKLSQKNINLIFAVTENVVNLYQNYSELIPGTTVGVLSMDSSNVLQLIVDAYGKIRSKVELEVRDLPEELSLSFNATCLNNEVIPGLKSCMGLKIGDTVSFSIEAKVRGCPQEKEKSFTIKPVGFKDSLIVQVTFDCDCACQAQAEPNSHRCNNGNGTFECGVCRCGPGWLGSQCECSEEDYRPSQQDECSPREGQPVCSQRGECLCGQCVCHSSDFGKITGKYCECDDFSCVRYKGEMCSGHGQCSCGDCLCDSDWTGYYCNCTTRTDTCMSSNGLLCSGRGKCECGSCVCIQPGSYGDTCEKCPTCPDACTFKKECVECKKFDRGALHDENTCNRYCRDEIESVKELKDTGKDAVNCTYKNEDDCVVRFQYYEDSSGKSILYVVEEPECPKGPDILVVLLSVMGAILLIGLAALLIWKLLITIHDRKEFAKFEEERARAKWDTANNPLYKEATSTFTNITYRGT

| SMILES | pIC50 |
| --- | --- |
| CCCCCC(=O)N[C@@H](CNC(=O)c1ccc(OCCNC(=N)N)cc1O)C(=O)O [Example 192, (2S)-3-{[4-(2-{[amino(imino)methyl]amino}ethoxy)-2-hydroxybenzoyl]amino}-2-(hexanoylamino)propanoic acid] | < 6.00 |
| CCCCC(=O)N[C@@H](CNC(=O)c1ccc(OCCNC(=N)N)cc1O)C(=O)O [Example 193, (2S)-3-{[4-(2-{[amino(imino)methyl]amino}ethoxy)-2-hydroxybenzoyl]amino}-2-(pentanoylamino)propanoic acid] | < 6.00 |
| CC(C)(C)CC(=O)N[C@@H](CNC(=O)c1ccc(OCCNC(=N)N)cc1O)C(=O)O [Example 194] | < 6.00 |
| CC1(C)C(C(=O)N[C@@H](CNC(=O)c2ccc(OCCNC(=N)N)cc2O)C(=O)O)C1(C)C [Example 195, (2S)-3-{[4-(2-{[amino(imino)methyl]amino}ethoxy)-2-hydroxybenzoyl]amino}-2-{[(2,2,3,3-tetramethylcyclopropyl)carbonyl]amino}propanoic acid] | < 6.00 |
| N=C(N)NCCOc1ccc(C(=O)NC[C@H](NC(=O)CC23CC4CC(CC(C4)C2)C3)C(=O)O)c(O)c1 [Example 196, (2S)-2-{[2-(1-adamantyl)acetyl]amino}-3-{[4-(2-{[amino(imino)methyl]amino}-ethoxy)-2-hydroxybenzoyl]amino}propanoic acid] | 5.24 |
| C#CCCC(=O)N[C@@H](CNC(=O)c1ccc(OCCNC(=N)N)cc1O)C(=O)O [Example 197, (2S)-3-{[4-(2-{[amino(imino)methyl]amino}ethoxy)-2-hydroxybenzoyl]amino}-2-(pent-4-ynoylamino)propanoic acid] | < 6.00 |
| N=C(N)NCCOc1ccc(C(=O)NC[C@H](NC(=O)C2CCCCC2)C(=O)O)c(O)c1 [Example 198, (2S)-3-{[4-(2-{[amino(imino)methyl]amino}ethoxy)-2-hydroxybenzoyl]amino}-2-[(cyclohexylcarbonyl)amino]propanoic acid] | < 6.00 |
| N=C(N)NCCOc1ccc(C(=O)NC[C@H](NC(=O)Cc2ccccc2)C(=O)O)c(O)c1 [Example 199, (2S)-3-{[4-(2-{[amino(imino)methyl]amino}ethoxy)-2-hydroxybenzoyl]amino}-2-[(2-phenylacetyl)amino]propanoic acid] | 4.83 |
| N=C(N)NCCOc1ccc(C(=O)NC[C@H](NC(=O)CCc2ccccc2)C(=O)O)c(O)c1 [Example 200, (2S)-3-{[4-(2-{[amino(imino)methyl]amino}ethoxy)-2-hydroxybenzoyl]amino}-2-[(3-phenylpropanoyl)amino]propanoic acid] | < 6.00 |
| N=C(N)NCCOc1ccc(C(=O)NC[C@H](NC(=O)CC2CCCCC2)C(=O)O)c(O)c1 [Example 201, (2S)-3-{[4-(2-{[amino(imino)methyl]amino}ethoxy)-2-hydroxybenzoyl]amino}-2-[(2-cyclohexylacetyl)amino]propanoic acid] | 4.88 |
| N=C(N)NCCOc1ccc(C(=O)NC[C@H](NC(=O)/C=C/c2ccccc2)C(=O)O)c(O)c1 [Example 202, (2S)-3-{[4-(2-{[amino(imino)methyl]amino}ethoxy)-2-hydroxybenzoyl]amino}-2-{[(E)-3-phenylprop-2-enoyl]amino}propanoic acid] | < 6.00 |
| N=C(N)NCCOc1ccc(C(=O)NC[C@H](NC(=O)c2ccccc2Cl)C(=O)O)c(O)c1 [Example 203, (2S)-3-{[4-(2-{[amino(imino)methyl]amino}ethoxy)-2-hydroxybenzoyl]amino}-2-[(2-chlorobenzoyl)amino]propanoic acid] | 4.85 |
| Cc1ccccc1C(=O)N[C@@H](CNC(=O)c1ccc(OCCNC(=N)N)cc1O)C(=O)O [Example 204, (2S)-3-{[4-(2-{[amino(imino)methyl]amino}ethoxy)-2-hydroxybenzoyl]amino}-2-[(2-methylbenzoyl)amino]propanoic acid] | 5.13 |
